How the values were obtained:
SiHa cells [1] = assay: Lactate consumption assay (inhibition of lactate influx); format: cell-based; details: Homo sapiens, 24 h treatment in lactate-containing medium
Method: SiHa cells were seeded on flat-bottom 24-well plates (500 000 cells/well) in normal DMEM. After 6 h of incubation, the culture medium was replaced by 1 ml of DMEM containing 10 mM lactate and incubated overnight for metabolic adaptation. Cells were then treated for 24 h with increasing concentrations of compounds (0.1, 1, 10 and 100 μM) in lactate-containing medium at 37° C. The supernatants were then centrifuged using deproteinizing columns (15 min, 10000 g at 4° C.) and lactate concentration was determined using the enzymatic assay commercialized by CMA Microdialysis AB on a CMA600 analyzer (Aurora Borealis).

SiHa cells [2] = assay: Cytotoxicity/anti-proliferative MTT assay, lactate as energy source; format: cell-based; details: Homo sapiens, DMEM 10 mM L-lactate without glucose, 72 h
Method: SiHa cells (human cervix squamous carcinoma) were routinely cultured in DMEM containing serum and antibiotics as previously described in Sonveaux, P. et al. J. Clin. Invest 2008 118, 3930. Two distinct media were used for the cytotoxicity assay, either DMEM containing 25 mM D-glucose (without pyruvate) or DMEM containing 10 mM L-lactate (without glucose). SiHa cells were seeded in flat-bottom 96-well plates in normal DMEM. After 6 h of incubation, the culture medium was replaced by 100 μl of glucose- or lactate-containing medium and incubated overnight for metabolic adaptation. SiHa cells were treated with the compounds of the invention at a concentration range of 0.01 μM to 100 μM. After a 72 h incubation at 37° C., cell medium was removed and replaced by freshly prepared MTT in PBS (1 mg/ml, 100 μl/well). After a 3 h incubation at 37° C., the plates were centrifuged (1000 g, 10 min at 4° C.) and the supernatant was removed before addition of DMSO (100 μl/well). Plates were kept for 10 min in the dark before reading at the spectrophotometer (Victor X4).

SiHa cells xenograft [3] = assay: In vivo anti-cancer activity against cervix cancer (SiHa cells xenograft model); details: nude NMRI mice, 3 mg/kg daily IP, FIG. 1(A)
Method: 7 weeks old female nude mice (Janvier®, 4-5 mice per group, Balb-c or NMRI) with various human cancer cell lines xenografts were used. SiHa cells were subcutaneously injected (10^6 to 2.10^6 (10^6 or 2.10^6) cells in sterile NaCl 0.9% per mouse) on the left flank of the mice (100 μl/mouse). […] Tumor volume was calculated as following: (length×width^2×π)/6 and expressed in mm^3. Tumor growth delay graphs and statistical analysis (Two-way ANOVA) were performed using GraphPad Prism 4 software.

SiHa cells xenograft [4] = assay: In vivo anti-cancer activity in combination with cisplatin against cervix cancer (SiHa cells xenograft model); details: nude NMRI mice, cisplatin 5 mg/kg IP day 0 and 7 plus compound 3 mg/kg daily IP day 1-6 and 8-11, FIG. 3
Method: (§1) Seven weeks old female nude mice (Janvier®, 4-5 mice per group, NMRI), were used for the experiments. SiHa cells were subcutaneously injected (2.10^6 cells in sterile NaCl 0.9% per mouse) on the left flank of the mice (100 μl/mouse). The treatment of the mice with compounds of the invention was started when tumor xenografts reached approximately 5 mm of length and width (Caliper® measurement). […] Tumor volume was calculated as the following: (length×width^2×π)/6 and expressed in mm^3. Tumor growth delay graphs and statistical analysis (Two-way ANOVA) were performed using GraphPad Prism 4 software.

HCT116 cells xenograft = assay: In vivo anti-cancer activity against colon cancer (HCT116 cells xenograft model); details: nude NMRI mice, 3 mg/kg daily IP, FIG. 2
Method: as §1, with “HCT116” for “SiHa”

SiHa cells [5] = assay: [14C]-lactate uptake assay (inhibition of lactate influx); format: cell-based; details: Homo sapiens, 0.2 h, 2 μM [14C]-lactate for 12 min
Method: After 6 h of incubation, the culture medium was replaced by 1 ml of DMEM containing 10 mM lactate and incubated overnight for metabolic adaptation.

Compound	CC50 (SiHa cells [2]) [nM]	further results
COc1ccc2cc(C(=O)O)c(=O)oc2c1 [cpd 2, 7-methoxy-2-oxo-2H-chromene-3-carboxylic acid]	9800	IC50 (SiHa cells [1]): 2300 nM
O=C(O)c1cc2ccc(OCc3cc(C(F)(F)F)cc(C(F)(F)F)c3)cc2oc1=O [cpd 3, 7-((3,5-bis(trifluoromethyl)benzyl)oxy)-2-oxo-2H-chromene-3-carboxylic acid]	600	
O=C(O)c1cc2ccc(OCc3cccc4ccccc34)cc2oc1=O [cpd 5, 7-(naphthalen-1-ylmethoxy) 2-oxo-2H-chromene-3-carboxylic acid]	1090	
O=C(O)c1cc2ccc(OCc3cccc(F)c3)cc2oc1=O [cpd 7, 7-((3-fluorobenzyl)oxy)-2-oxo-2H-chromene-3-carboxylic acid]	1170	
O=C(O)c1cc2ccc(OCc3ccccc3)cc2oc1=O [cpd 9, 7-(benzyloxy)-2-oxo-2H-chromene-3-cartboxylic acid]	9100	IC50 (SiHa cells [1]): 1900 nM
O=C(O)c1cc2ccc(OCc3ccccc3Cl)cc2oc1=O [cpd 11, 7-((2-chlorobenzyl)oxy)-2-oxo-2H-chromene-3-carboxylic acid]	4230	
COc1cccc(COc2ccc3cc(C(=O)O)c(=O)oc3c2)c1 [cpd 13]	4600	
O=C(O)c1cc2ccc(OCCc3ccccc3)cc2oc1=O [cpd 15, 2-oxo-7-phenethoxy-2H-chromene-3-carboxylic acid]	5600	IC50 (SiHa cells [1]): 2400 nM
CC(C)=CCC/C(C)=C/COc1ccc2cc(C(=O)O)c(=O)oc2c1 [cpd 17, (E)-7-((3,7-dimethylocta-2,6-dien-1-yl)oxy)-2-oxo-2H-chromene-3-carboxylic acid]	11700	
O=C(O)c1cc2ccc(OCc3ccc(Cl)c(Cl)c3)cc2oc1=O [cpd 19, 7-((3,4-dichlorobenzyl)oxy)-2-oxo-2H-chromene-3-carboxylic acid]	68400	
COc1ccc(OC)c(COc2ccc3cc(C(=O)O)c(=O)oc3c2)c1 [cpd 22]	702	
O=C(O)c1cc2ccc(OCn3nnc4ccccc43)cc2oc1=O [cpd 24, 7-((1H-benzo[d][1,2,3]triazol-1-yl)methoxy)-2-oxo-2H-chromene-3-carboxylic acid]	1100	
O=C(O)c1cc2ccc(OCc3ccc(F)cc3)cc2oc1=O [cpd 26, 7-((4-fluorobenzyl)oxy)-2-oxo-2H-chromene-3-carboxylic acid]	3900	IC50 (SiHa cells [1]): 1250 nM
O=C(O)c1cc2ccc(OCc3ccc(C(F)(F)F)cc3)cc2oc1=O [cpd 28, 2-oxo-7-((4-(trifluoromethyl)benzyl)oxy)-2H-chromene-3-carboxylic acid]	6860	
O=C(O)c1cc2ccc(OC3Cc4ccccc4C3)cc2oc1=O [cpd 30, 7-((2,3-dihydro-1H-inden-2-yl)oxy)-2-oxo-2H-chromene-3-carboxylic acid]	7800	
CN(Cc1ccccc1)c1ccc2cc(C(=O)O)c(=O)oc2c1 [cpd 31, 7-(benzyl(methyl)amino)-2-oxo-2H-chromene-3-carboxylic acid]	220	IC50 (SiHa cells [1]): 59 nM; Tumor growth delay (tumor volume) (SiHa cells xenograft [3]): clear tumor growth delay; Delay in tumor relapse (tumor volume) (SiHa cells xenograft [4]): clear delay in tumor relapse; Tumor growth delay (tumor volume) (HCT116 cells xenograft): clear tumor growth delay; IC50 (SiHa cells [5]): 11 nM

Compound	CC50 (SiHa cells [2]) [nM]	further results
O=C(O)c1cc2ccc(N3CCCC3)cc2oc1=O [cpd 33, 2-oxo-7-(pyrrolidin-1-yl)-2H-chromene-3-carboxylic acid]	14300	
O=C(O)c1cc2ccc(N3CCOCC3)cc2oc1=O [cpd 34, 7-morpholino-2-oxo-2H-chromene-3-carboxylic acid]	17500	IC50 (SiHa cells [1]): 7900 nM
CN(C)c1ccc2cc(C(=O)O)c(=O)oc2c1 [cpd 35, 7-(dimethlamino)-2-oxo-2H-chromene-3-carboxylic acid]	2900	IC50 (SiHa cells [1]): 1400 nM
O=C(O)c1cc2cc3c4c(c2oc1=O)CCCN4CCC3 [cpd 37, 11-oxo-2,3,5,6,7,11-hexahydro-1H-pyrano[2,3 - f]pyrido[3,2,1-ij]quinoline-10-carboxylic acid]	1200	IC50 (SiHa cells [1]): 1300 nM
O=C(O)c1cc2ccc(NCc3ccccc3)cc2oc1=O [cpd 39, 7-(benzylamino)-2-oxo-2H-chromene-3-carboxylic acid]	1790	
CCN(Cc1ccccc1)c1ccc2cc(C(=O)O)c(=O)oc2c1 [cpd 41, 7-(benzyl(ethyl)amino)-2-oxo-2H-chromene-3-carboxylic acid]	1900	
CC(C)CN(Cc1ccccc1)c1ccc2cc(C(=O)O)c(=O)oc2c1 [cpd 43, 7-(benzyl(isobutyl)amino)-2-oxo-2H-chromene-3-carboxylic acid]	16300	
CCCN(Cc1ccccc1)c1ccc2cc(C(=O)O)c(=O)oc2c1 [cpd 44, 7-(benzyl(propyl)amino)-2-oxo-2H-chromene-3-carboxylic acid]	11100	
CC(C)CN(C)c1ccc2cc(C(=O)O)c(=O)oc2c1 [cpd 45, 7-(isobutyl(methyl)amino)-2-oxo-2H-chromene-3-carboxylic acid]	220	
CN(Cc1cccs1)c1ccc2cc(C(=O)O)c(=O)oc2c1 [cpd 46, 7-(methyl(thiophen-2-ylmethyl)amino)-2-oxo-2H-chromene-3-carboxylic acid]	210	
CN(Cc1cccc(F)c1)c1ccc2cc(C(=O)O)c(=O)oc2c1 [cpd 47, 7-((3-fluorobenzyl)(methyl)amino)-2-oxo-2H-chromene-3-carboxylic acid]	40	
CN(CC1CCCCC1)c1ccc2cc(C(=O)O)c(=O)oc2c1 [cpd 48, 7-((cyclohexylmethyl)(methyl)amino)-2-oxo-2H-chromene-3-carboxylic acid]	200	
COc1cccc(CN(C)c2ccc3cc(C(=O)O)c(=O)oc3c2)c1 [cpd 49, 7-((3-methoxybenzyl)(methyl)amino)-2-oxo-2H-chromene-3-carboxylic acid]	70	
CN(CC1CCOCC1)c1ccc2cc(C(=O)O)c(=O)oc2c1 [cpd 50, 7-(methyl((tetrahydro-2H-pyran-4-yl)methyl)amino)-2-oxo-2H-chromene-3-carboxylic acid]	100	
O=C(O)c1cc2ccc(N(Cc3ccccc3)Cc3ccccc3)cc2oc1=O [cpd 51, 7-(dibenzylamino)-2-oxo-2H-chromene-3-carboxylic acid]	12700	
O=C(Nc1ccc2cc(C(=O)O)c(=O)oc2c1)c1ccccc1 [cpd 116, 7-benzamido-2-oxo-2H-chromene-3-carboxylic acid]	1500	
